Experimental data taken from the Deep4Chem optical property database.
Values belong to the compound of their own block, whether it stands above or below them.

Test: solvent given as SMILES

Structure (SMILES): CN(C)c1ccc(/C=C/C=C2\CC/C(=C\C=C\c3ccc(N(C)C)cc3)C2=O)cc1
fluorescence lifetime (in C1CCCCC1): 0.48 ns | fluorescence lifetime (in CC#N): 0.49 ns | fluorescence lifetime (in CC(C)=O): 0.8 ns | fluorescence lifetime (in CC(C)O): 0.56 ns | fluorescence lifetime (in CCCCCC): 0.86 ns | fluorescence lifetime (in CCCCO): 0.37 ns | fluorescence lifetime (in CCCO): 0.19 ns | fluorescence lifetime (in CCO): 0.24 ns | fluorescence lifetime (in CCOC(C)=O): 0.69 ns | fluorescence lifetime (in CCOCC): 0.76 ns | fluorescence lifetime (in CN(C)C=O): 0.67 ns | fluorescence lifetime (in CO): 0.21 ns | fluorescence lifetime (in CS(C)=O): 0.58 ns | fluorescence lifetime (in Cc1ccccc1): 0.86 ns | fluorescence lifetime (in ClC(Cl)(Cl)Cl): 0.76 ns | fluorescence lifetime (in ClCCl): 1.08 ns | fluorescence lifetime (in OCC(F)(F)F): 0.14 ns | fluorescence lifetime (in S=C=S): 0.83 ns | fluorescence lifetime (in c1ccccc1): 0.81 ns | fluorescence lifetime (in c1ccncc1): 1.17 ns

Structure (SMILES): CCN(CC)c1ccc2cc(/C=C3\CCCc4c3[o+]c3cc(N(CC)CC)ccc3c4-c3ccccc3C(=O)O)c(=O)oc2c1
fluorescence lifetime (in ClCCl): 0.36 ns

Structure (SMILES): O=[N+]([O-])c1ccc2c(c1)-c1c3c(c4c([n+]1[B-](F)(F)O2)CCc1ccccc1-4)CCc1ccccc1-3
fluorescence lifetime (in ClCCl): 0.63 ns

Structure (SMILES): CN1C(=CC2=C([O-])C(=CC3=[N+](C)c4ccccc4C3(C)C)C2=O)C(C)(C)c2cc(Cl)ccc21
fluorescence lifetime (in CO): 0.2 ns | fluorescence lifetime (in ClC(Cl)Cl): 1.05 ns

Structure (SMILES): COc1cc2[nH]c3c(c2cc1OCC(=O)O)CCCC3=O
fluorescence lifetime (in C1CCOC1): 0.411 ns | fluorescence lifetime (in C1COCCO1): 0.189 ns | fluorescence lifetime (in CC#N): 0.627 ns | fluorescence lifetime (in CCCCCCCCCCCCO): 1.24 ns | fluorescence lifetime (in CCCCCCCCCCO): 1.17 ns | fluorescence lifetime (in CCCCCCCCO): 1.15 ns | fluorescence lifetime (in CCCCCCO): 1.17 ns | fluorescence lifetime (in CCCCO): 1.29 ns | fluorescence lifetime (in CCO): 1.69 ns | fluorescence lifetime (in CCOC(C)=O): 0.279 ns | fluorescence lifetime (in CN(C)C=O): 1.92 ns | fluorescence lifetime (in CO): 1.87 ns | fluorescence lifetime (in CS(C)=O): 2.27 ns | fluorescence lifetime (in Cc1ccccc1): 0.189 ns | fluorescence lifetime (in O): 2.23 ns | fluorescence lifetime (in c1ccccc1): 0.188 ns

Structure (SMILES): CC1(C)Nc2cc(Cl)ccc2-c2[nH]c3ccccc3c(=O)c21
fluorescence lifetime (in C1CCOC1): 7.47 ns | fluorescence lifetime (in CC#N): 8.72 ns | fluorescence lifetime (in CCCCO): 9.26 ns | fluorescence lifetime (in CCCO): 9.2 ns | fluorescence lifetime (in CCO): 9 ns | fluorescence lifetime (in CCOC(C)=O): 7.52 ns | fluorescence lifetime (in CN(C)C=O): 9.36 ns | fluorescence lifetime (in CO): 8.67 ns | fluorescence lifetime (in CS(C)=O): 9.91 ns | fluorescence lifetime (in Cc1ccccc1): 6.68 ns | fluorescence lifetime (in ClC(Cl)(Cl)Cl): 4.8 ns | fluorescence lifetime (in ClCCl): 8.06 ns | fluorescence lifetime (in O): 8.68 ns | fluorescence lifetime (in c1ccccc1): 6.71 ns

Structure (SMILES): Cc1cc(C)c(B(c2ccc(-n3c4ccccc4c4ccccc43)cc2)c2c(C)cc(C)cc2C)c(C)c1
fluorescence lifetime (in Cc1ccccc1): 3.7 ns

Structure (SMILES): FC(F)(F)C(F)(F)C(F)(F)C1=NC2=C(Oc3ccccc3)C=C3c4cc(Oc5ccccc5)c5nc(C(F)(F)C(F)(F)C(F)(F)F)nc6c(Oc7ccccc7)cc(c4c56)=C4C=C(Oc5ccccc5)C(=N1)C2C34 (stereo not drawn)
fluorescence lifetime (in C1CCOC1): 2.8 ns

Structure (SMILES): Cc1ccc2sc3cc(CCC(=O)O)ccc3c(=O)c2c1
fluorescence lifetime (in CC#N): 0.07 ns | fluorescence lifetime (in CC(C)O): 1.3 ns | fluorescence lifetime (in CCO): 1.7 ns | fluorescence lifetime (in CO): 2.55 ns | fluorescence lifetime (in OCCO): 4.6 ns

Structure (SMILES): C(=C\c1ccc(N(c2ccccc2)c2ccccc2)cc1)/c1ccc(/C=C/c2ccc(N(c3ccccc3)c3ccccc3)cc2)cc1
fluorescence lifetime (in C1CCOC1): 1.25 ns | fluorescence lifetime (in CS(C)=O): 1.53 ns | fluorescence lifetime (in Cc1ccccc1): 0.99 ns

Structure (SMILES): COc1ccc(N(c2ccccc2)c2ccc(OC)cc2)cc1
fluorescence lifetime (in Cc1ccccc1): 2.27 ns

Structure (SMILES): CCCCCCCCCCOc1cc2cc(C#Cc3ccc(/C=C(\C#N)C(=O)O)cc3)c(=O)oc2cc1OCCCCCCCCCC
fluorescence lifetime (in CC#N): 1.1 ns

Structure (SMILES): O=C(O)c1ccc(C(=O)O)c2cc3ccccc3cc12
fluorescence lifetime (in C1CCOC1): 19.2 ns | fluorescence lifetime (in CN(C)C=O): 12.5 ns

Structure (SMILES): CC(C)(C)c1ccc(C2=C(c3ccc(-n4c5ccc(C(C)(C)C)cc5c5cc(C(C)(C)C)ccc54)cc3)S(=O)(=O)c3c2sc(-c2ccc(-n4c5ccc(C(C)(C)C)cc5c5cc(C(C)(C)C)ccc54)cc2)c3-c2ccc(C(C)(C)C)cc2)cc1
fluorescence lifetime (in C1CCOC1): 1.1 ns

The remaining lines, values ahead:

fluorescence lifetime (in ClC(Cl)Cl): 3.62 ns
Structure (SMILES): CCc1ccc(-n2c3ccccc3c3cc4c(cc32)c2ccccc2n4-c2ccc(CC)cc2)cc1

fluorescence lifetime (in CC#N): 4.11 ns | fluorescence lifetime (in ClCCl): 3.53 ns
Structure (SMILES): Nc1nc2ccc([N+](=O)[O-])cc2s1

fluorescence lifetime (in ClCCl): 6.4 ns
Structure (SMILES): COc1ccc(C2=Cc3ccccc3P2(=O)c2ccccc2)cc1 (stereo not drawn)

fluorescence lifetime (in C1CCOC1): 3.42 ns
Structure (SMILES): COc1cc2c(cc1-c1ccsc1)Cc1c3c(c4c(c1-2)-c1cc(OC)c(-c2ccsc2)cc1C4)C(=O)N(CCC(C)C)C3=O

fluorescence lifetime (in ClCCl): 1.72 ns
Structure (SMILES): COC(=O)c1cc(=O)n(C)c2cc(-c3ccc4c(c3)OCO4)sc12

fluorescence lifetime (in CC#N): 8.14 ns
Structure (SMILES): Oc1ccc2cc(C3(O)C4CC5CC(C4)CC3C5)ccc2c1 (stereo not drawn)

fluorescence lifetime (in ClC(Cl)Cl): 0.4 ns
Structure (SMILES): O=c1oc2ccccc2cc1-c1cccc(-c2cc3ccccc3oc2=O)c1

fluorescence lifetime (in C1CCOC1): 2.82 ns | fluorescence lifetime (in CC(C)O): 1.8 ns | fluorescence lifetime (in CO): 1.5 ns | fluorescence lifetime (in CS(C)=O): 2.2 ns | fluorescence lifetime (in ClC(Cl)Cl): 0.96 ns | fluorescence lifetime (in ClCCl): 3.82 ns
Structure (SMILES): COc1ccccc1-c1c(-c2ccccc2O)nc(-c2ccc(C(F)(F)F)cc2)n1-c1ccc(C)cc1
